Test results: patent publication US12098217B2, “Fusion peptides as antimicrobial agents” (CENTRE NATIONAL DE LA RECHERCHE SCIENTIFIQUE, priority 2019, dated 2024)
In brackets after ≈: the same amount, converted by molar mass. Square brackets hold non-standard residues; d marks the D form. Peptide text beside a SMILES is read from it. Cha = N[C@@H](CC1CCCCC1)C(=O)O

Experiments:
E. coli D22 strain = test: microbe, parasite or virus in culture; assay type: cell-based; settings: for antibacterial activity, in words: E. coli D22, microdilution broth assay
[1] = test system: E. coli infected kenny^drawing 2831 flies; test: In vivo survival assay, D. melanogaster infection model; set-up: species or system Drosophila melanogaster; settings: 18.4 nl of 1 mM peptide 1 and 24 h after infection; for fold increased survival of infected flies 96 h after injection: E. coli infected kenny flies, versus PBS
Experimental: FIG. 2 concerns the in vivo survival assay using Drosophila melanogaster infection model. Seven-day-old female kenny^C02831 flies were infected by septic injury with a thin tungsten needle previously dipped in an E. coli suspension diluted in PBS and kept at 29° C. 1 and 24 hours after infection, 18.4 nl of peptides (1 mM) diluted in PBS or PBS alone were injected into the flies body cavity. (A) Survival curves. (B) Survival rate after 96 hours. (C) Lethal time 50% (LT50). Data represent means±standard errors of at least 3 independent experiments, each containing three groups of 20 flies. One-Way ANOVA test: *P<0.05, **P<0.01, ***P<0.001. ns: non-significant (P28: Onc112; P30: Onc112-P7; P120: Onc112-P7Scr).
50 ml of E. coli ATCC23754 were grown at 29° C. in LB media up to exponential phase (OD600=0.6-0.8) and centrifuged at 5.000 g for 5 min. The pellet was then diluted in 1 ml of PBS. Immune-deficient kenny^C02831 (Bou Aoun, R., Hetru, C., Troxler, L., Doucet, D., Ferrandon, D., and Matt, N. (2011). Analysis of thioester-containing proteins during the innate immune response of Drosophila melanogaster. J Innate Immun 3, 52-64) flies were raised at 25° C. with 60% humidity on standard cornmeal-agar medium. Seven-day-old female flies were infected by septic injury with a thin tungsten needle previously dipped in an E. coli suspension diluted in PBS and kept at 29° C. 1 and 24 hours after infection, 18.4 nl of peptides (1 mM) diluted in PBS or PBS alone were injected into the fly body cavity (Nanoject II apparatus; Drummond Scientific). Because log-rank analysis can only compare two survival curves at a time in the same experiment, we decided to compute the median lethal time 50 (LT50) and the survival rate at 96 hours to perform One-way ANOVA statistical analysis.

[2] = test system: E. coli 70S ribosome (^Ec70S); test: ITC, peptide interaction with E. coli 70S ribosome; assay type: binding
[3] = ITC 30° C., Table 2B, ^Ec70S, Ni = no specific interaction
[4] = ITC 30° C., Table 2B, ^Ec70S, Ni = no specific interaction, FITC peptides (*) values not well defined
[5] = ITC 25° C., E. coli ribosome (70S)
[6] = ITC, 30° C., E. coli ribosome, FITC-Onc112 series

SMILES	MIC (μM) (E. coli D22 strain; D22 strain) [µM]	MIC (μg/ml) (E. coli D22 strain; D22 strain) [µg/mL]	effect on survival of E. coli infected flies, in words [1]	Kd [2, 3] [nM]	ΔG [2, 4] [kcal/mol]	ΔH [2, 4] [kcal/mol]	−TΔS [2, 4] [kcal/mol]	fold increased survival of infected flies 96 h after injection [1] [fold]	antibacterial activity, in words (E. coli D22 strain)	interaction with ^Ec70S, in words ([2]; ITC 30° C.)	also measured
CC[C@H](C)[C@H](NC(=O)[C@@H](CCCNC(=N)N)NC(=O)[C@H](CCCNC(=N)N)NC(=O)[C@@H]1CCCN1C(=O)[C@@H]1CCCN1C(=O)[C@H](CCCNC(=N)N)NC(=O)[C@@H]1CCCN1C(=O)[C@H](CCCNC(=N)N)NC(=O)[C@@H]1CCCN1C(=O)[C@H](CC(C)C)NC(=O)[C@H](Cc1ccc(O)cc1)NC(=O)[C@@H]1CCCN1C(=O)[C@@H]1CCCN1C(=O)[C@H](CCCCN)NC(=O)[C@H](CC(=O)O)NC(=O)[C@@H](N)C(C)C)C(=O)N[C@@H](Cc1ccc(O)cc1)C(=O)N[C@@H](CC(N)=O)C(=O)N[C@H](CCCNC(=N)N)C(=O)N[C@@H](CC(N)=O)C(=O)NCC(=O)N1CCC[C@H]1C(=O)N[C@@H](CCCNC(=N)N)C(=O)N[C@@H](CC1CCCCC1)C(=O)N[C@@H](Cc1ccccc1)C(=O)N[C@@H](CCC(N)=O)C(=O)N[C@@H](CC(C)C)C(=O)N[C@@H](CC(=O)O)C(=O)O [Peptide P120] (H-VDKPPYLPRPRPPR[dR]IYN[dR]NGPR[Cha]FQLD-OH)	0.29 to 0.58	1 to 2	does not statistically differ from that measured with P28	101	-9.85	-13	3.12				
CC[C@H](C)[C@H](NC(=O)[C@@H]1CCCN1C(=O)[C@H](CCCNC(=N)N)NC(=O)[C@@H]1CCCN1C(=O)[C@@H]1CCCN1C(=O)[C@@H](NC(=O)[C@@H]1CCCN1C(=O)[C@H](CCCNC(=N)N)NC(=O)[C@@H]1CCCN1C(=O)[C@H](CC(C)C)NC(=O)[C@H](Cc1ccc(O)cc1)NC(=O)[C@H](CO)NC(=O)CNC(=O)[C@H](CCCCN)NC(=O)[C@H](CC(=O)O)NC(=O)[C@@H](NC(=O)[C@H](CCCCN)NC(=O)c1ccc2c(c1)C(=O)OC21c2ccc(O)cc2Oc2cc(O)ccc21)C(C)C)[C@@H](C)O)C(=O)N[C@@H](Cc1ccc(O)cc1)C(=O)N[C@@H](CC(N)=O)C(=O)N[C@@H](CCCNC(=N)N)C(=O)N[C@@H](CC(N)=O)C(=O)NCC(=O)N1CCC[C@H]1C(=O)N[C@@H](CCCNC(=N)N)C(=O)N[C@@H](CCC(N)=O)C(=O)N[C@@H](CC1CCCCC1)C(=O)N[C@@H](CC(=O)O)C(=O)N[C@@H](CC(C)C)C(=O)N[C@@H](Cc1ccccc1)C(=O)O [Peptide P150]	16.9 to 33.8	64 to 128			-6.27	-13	6.7				factor by which MIC is lower than that of P122 (E. coli D22 strain): 4 to 16; MBC (E. coli D22 strain; D22 strain): 128 µg/mL (≈ 33.7 µM); Kd ([2]; ITC 30° C., Table 2B, ^Ec70S, FITC peptides (*), values not well defined, weak interaction): > 10000 nM
CC[C@H](C)[C@H](NC(=O)[C@@H](CCCNC(=N)N)NC(=O)[C@H](CCCNC(=N)N)NC(=O)[C@@H]1CCCN1C(=O)[C@@H]1CCCN1C(=O)[C@H](CCCNC(=N)N)NC(=O)[C@@H]1CCCN1C(=O)[C@H](CCCNC(=N)N)NC(=O)[C@@H]1CCCN1C(=O)[C@H](CC(C)C)NC(=O)[C@H](Cc1ccc(O)cc1)NC(=O)[C@@H]1CCCN1C(=O)[C@@H]1CCCN1C(=O)[C@H](CCCCN)NC(=O)[C@H](CC(=O)O)NC(=O)[C@@H](N)C(C)C)C(=O)N[C@@H](Cc1ccc(O)cc1)C(=O)N[C@@H](CC(N)=O)C(=O)N[C@H](CCCNC(=N)N)C(N)=O [Peptide P28, reference compound] (H-VDKPPYLPRPRPPR[dR]IYN[dR]-NH2; N-terminus assumed)				84	-9.82	-23.9	14.0	2.5			Kd [2, 5]: 241 nM; ΔG (kcal/mol) [2, 5]: −9.2 (±0.1) kcal/mol; ΔH (kcal/mol) [2, 5]: −16.2 (±0.3) kcal/mol; affinity for ^Ec70S relative to Py ([2]; ITC 30° C.): fivefold lower; Kd ([2]; ITC 30° C., Table 2B, ^Ec70S, Ni = no specific interaction, listed as Onc112): ~84 nM; Kd [2, 6]: 241 nM; ΔG (kcal/mol) [2, 6]: −9.2 (±0.1) kcal/mol; ΔH (kcal/mol) [2, 6]: −16.2 (±0.3) kcal/mol
CC[C@H](C)[C@H](NC(=O)[C@@H](CCCNC(=N)N)NC(=O)[C@H](CCCNC(=N)N)NC(=O)[C@@H]1CCCN1C(=O)[C@@H]1CCCN1C(=O)[C@H](CCCNC(=N)N)NC(=O)[C@@H]1CCCN1C(=O)[C@H](CCCNC(=N)N)NC(=O)[C@@H]1CCCN1C(=O)[C@H](CC(C)C)NC(=O)[C@H](Cc1ccc(O)cc1)NC(=O)[C@@H]1CCCN1C(=O)[C@@H]1CCCN1C(=O)[C@H](CCCCN)NC(=O)[C@H](CC(=O)O)NC(=O)[C@@H](N)C(C)C)C(=O)N[C@@H](Cc1ccc(O)cc1)C(=O)N[C@@H](CC(N)=O)C(=O)N[C@H](CCCNC(=N)N)C(=O)N[C@@H](CC(N)=O)C(=O)NCC(=O)N1CCC[C@H]1C(=O)N[C@@H](CCCNC(=N)N)C(=O)N[C@@H](CCC(N)=O)C(=O)N[C@@H](CC1CCCCC1)C(=O)N[C@@H](CC(=O)O)C(=O)N[C@@H](CC(C)C)C(=O)N[C@@H](Cc1ccccc1)C(=O)O [Peptide P30] (H-VDKPPYLPRPRPPR[dR]IYN[dR]NGPRQ[Cha]DLF-OH)	0.15 to 0.29	0.5 to 1	two times higher protective effect than its parental peptide P28	70.4	-9.92	-25.6	15.7	4.5	no increase in the activity	efficiently interact	affinity for the ribosome relative to affinity for SC ([2]; from Table 2, ^Ec70S versus ^EcSC): three times higher affinity
CC(=O)N[C@@H](CCC(N)=O)C(=O)N[C@@H](CC1CCCCC1)C(=O)N[C@@H](CC(=O)O)C(=O)N[C@@H](CC(C)C)C(=O)N[C@@H](Cc1ccccc1)C(=O)O [Peptide P7, Ac-QChaDLF-OH, reference compound] (Ac-Q[Cha]DLF-OH)	>357	>256	has no effect on fly survival						fails to induce any detectable antibacterial activity	does not specifically bind	Kd (nM) [2, 3]: Ni; ΔG (kcal/mole) [2, 4]: Ni; ΔH (kcal/mole) [2, 4]: Ni; −TΔS (kcal/mole) [2, 4]: Ni
